Measurements reported in article PMC8540742, “New N-Substituted-1,2,4-triazole Derivatives of Pyrrolo[3,4-d]pyridazinone with Significant Anti-Inflammatory Activity—Design, Synthesis and Complementary In Vitro, Computational and Spectroscopic Studies” (International Journal of Molecular Sciences, 2021).

target: T1, bovine serum albumin (BSA) (Bos taurus, UniProt P02769); experiment: intrinsic fluorescence quenching (ex […] nm); assay type: binding; settings: […] K, pH […] BSA; static quenching; n about […]; subdomain IIIA by site markers; double-log
T1 construct: gene ALB; commercial native serum albumin (Sigma Aldrich, named for the FT-IR work), mature protein 583 residues, no tags
T1 sequence (P02769 25-607): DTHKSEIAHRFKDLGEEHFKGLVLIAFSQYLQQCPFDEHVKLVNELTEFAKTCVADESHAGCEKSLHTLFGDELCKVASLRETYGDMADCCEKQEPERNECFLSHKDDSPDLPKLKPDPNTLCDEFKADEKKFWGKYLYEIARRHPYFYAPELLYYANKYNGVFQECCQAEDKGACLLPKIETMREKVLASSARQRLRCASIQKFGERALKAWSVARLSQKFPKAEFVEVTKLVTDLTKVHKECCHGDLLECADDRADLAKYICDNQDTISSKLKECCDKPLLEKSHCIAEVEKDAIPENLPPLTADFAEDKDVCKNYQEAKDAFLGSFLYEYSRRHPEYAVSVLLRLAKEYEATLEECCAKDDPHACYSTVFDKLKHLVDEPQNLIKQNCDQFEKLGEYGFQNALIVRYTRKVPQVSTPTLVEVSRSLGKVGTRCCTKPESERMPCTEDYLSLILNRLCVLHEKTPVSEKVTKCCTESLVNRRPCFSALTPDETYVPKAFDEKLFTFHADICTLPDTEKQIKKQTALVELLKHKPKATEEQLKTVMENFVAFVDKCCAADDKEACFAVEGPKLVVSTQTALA

Row | Binding / Kb × 10^4 [dm^3mol^-1] | SMILES
1 | 9.33 × 10^4 dm^3 mol^-1 | CCCCn1c(C)c2c(OCc3nnc(SCC(=O)N4CCN(c5ccccc5)CC4)n3-c3ccc(OC)cc3)nn(C)c(=O)c2c1C [7c, 6-butyl-3,5,7-trimethyl-1-[[4-(4-methoxy)phenyl-3-[2-oxo-2-(4-phenylpiperazin-1-yl)ethyl]sulfanyl-2H-1,2,4-triazol-5-yl]methoxy]pyrrolo[3,4-d]pyridazin-4-one]
2 | 9.33 × 10^4 dm^3 mol^-1 | CCCCn1c(C)c2c(OCc3nnc(SCC(=O)N4CCN(c5ccccc5)CC4)n3-c3ccccc3)nn(C)c(=O)c2c1C [7b, 6-butyl-3,5,7-trimethyl-1-[[4-phenyl-3-[2-oxo-2-(4-phenylpiperazin-1-yl)ethyl]sulfanyl-2H-1,2,4-triazol-5-yl]methoxy]pyrrolo[3,4-d]pyridazin-4-one]
3 | 8.13 × 10^4 dm^3 mol^-1 | CCCCn1c(C)c2c(OCc3nn(CN4CCN(c5ccc(C)cc5)CC4)c(=S)n3-c3ccccc3)nn(C)c(=O)c2c1C [6b, 6-butyl-3,5,7-trimethyl-1-[[4-phenyl-2-[[4-[(4-methyl)phenyl]piperazin-1-yl]methyl]-3-thioxo-2H-1,2,4-triazol-5-yl]methoxy]pyrrolo[3,4-d]pyridazin-4-one]
4 | 4.90 × 10^4 dm^3 mol^-1 | CCCCn1c(C)c2c(OCc3nn(CN4CCN(c5ccc(C)cc5)CC4)c(=S)n3C)nn(C)c(=O)c2c1C [6a, 6-butyl-3,5,7-trimethyl-1-[[4-methyl-2-[[4-[(4-methyl)phenyl]piperazin-1-yl]methyl]-3-thioxo-2H-1,2,4-triazol-5-yl]methoxy]pyrrolo[3,4-d]pyridazin-4-one]
5 | 4.68 × 10^4 dm^3 mol^-1 | CCCCn1c(C)c2c(OCc3nnc(SCC(=O)N4CCN(c5ccccc5)CC4)n3C)nn(C)c(=O)c2c1C [7a, 6-butyl-3,5,7-trimethyl-1-[[4-methyl-3-[2-oxo-2-(4-phenylpiperazin-1-yl)ethyl]sulfanyl-2H-1,2,4-triazol-5-yl]methoxy]pyrrolo[3,4-d]pyridazin-4-one]
6 | 9.55 × 10^4 dm^3 mol^-1 | CCCCn1c(C)c2c(OCc3nn(CN4CCN(c5ccc(C)cc5)CC4)c(=S)n3-c3ccc(OC)cc3)nn(C)c(=O)c2c1C [6c, 6-butyl-1-[[4-(4-methoxyphenyl)-2-[[4-[(4-methyl)phenyl]piperazin-1-yl]methyl]-3-thioxo-2H-1,2,4-triazol-5-yl]methoxy]-3,5,7-trimethyl-pyrrolo[3,4-d]pyridazin-4-one]

Second part, the compound before the results:

Row | SMILES | Binding / Kb × 10^4 [dm^3mol^-1]
7 | CCCCn1c(C)c2c(OCc3nn(CN4CCN(c5cccc(C(F)(F)F)c5)CC4)c(=S)n3-c3ccccc3)nn(C)c(=O)c2c1C [5b, 6-butyl-3,5,7-trimethyl-1-[[4-phenyl-2-[[4-[3-(trifluoromethyl)phenyl]piperazin-1-yl]methyl]-3-thioxo-2H-1,2,4-triazol-5-yl]methoxy]pyrrolo[3,4-d]pyridazin-4-one] | 5.75 × 10^4 dm^3 mol^-1
8 | CCCCn1c(C)c2c(OCc3nn(CN4CCN(c5ccccc5)CC4)c(=S)n3C)nn(C)c(=O)c2c1C [4a, 6-butyl-3,5,7-trimethyl-1-[[4-methyl-2-[(4-phenylpiperazin-1-yl)methyl]-3-thioxo-2H-1,2,4-triazol-5-yl]methoxy]pyrrolo[3,4-d]pyridazin-4-one] | 8.91 × 10^4 dm^3 mol^-1
9 | CCCCn1c(C)c2c(OCc3nn(CN4CCN(c5cccc(C(F)(F)F)c5)CC4)c(=S)n3-c3ccc(OC)cc3)nn(C)c(=O)c2c1C [5c, 6-butyl-1-[[4-(4-methoxyphenyl)-2-[[4-[3-(trifluoromethyl)phenyl]piperazin-1-yl]methyl]-3-thioxo-2H-1,2,4-triazol-5-yl]methoxy]-3,5,7-trimethyl-pyrrolo[3,4-d]pyridazin-4-one] | 9.33 × 10^4 dm^3 mol^-1
10 | CCCCn1c(C)c2c(OCc3nn(CN4CCN(c5ccccc5)CC4)c(=S)n3-c3ccccc3)nn(C)c(=O)c2c1C [4b, 6-butyl-3,5,7-trimethyl-1-[[4-phenyl-2-[(4-phenylpiperazin-1-yl)methyl]-3-thioxo-2H-1,2,4-triazol-5-yl]methoxy]pyrrolo[3,4-d]pyridazin-4-one] | 6.61 × 10^4 dm^3 mol^-1
11 | CCCCn1c(C)c2c(OCc3nn(CN4CCN(c5cccc(C(F)(F)F)c5)CC4)c(=S)n3C)nn(C)c(=O)c2c1C [5a, 6-butyl-3,5,7-trimethyl-1-[[4-methyl-2-[[4-[3-(trifluoromethyl)phenyl]piperazin-1-yl]methyl]-3-thioxo-2H-1,2,4-triazol-5-yl]methoxy]pyrrolo[3,4-d]pyridazin-4-one] | 8.13 × 10^4 dm^3 mol^-1
